Here are results for 15 compounds from patent publication US8507514B2, “Hydrazide compound and use of the same in pest control” (Sumitomo Chemical Company, Limited, priority 2009, dated 2013).

One experiment has as its system Spodoptela litura. As to the kind of experiment: Test Example 4: Spodoptela litura larvae on treated artificial diet. The class given is in vivo. The settings on record: 144 h; 500 ppm test solution, 2 mL on artificial diet Insecta LF; 5 fourth instar larvae; after 6 days; read-out: pest death rate. As to the method: (§1) Formulations of some compounds of the present invention were obtained according to Formulation Example 5. The formulation was diluted with water to prepare a test solution having 500 ppm of the active ingredient.
A filter paper having a diameter of 5.5 cm was spread on the bottom of a polyethylene cup having a diameter of 5.5 cm. Insecta LF (manufactured by NOSAN CORPORATION), an artificial diet, was sliced to 6 mm in thickness, cut into half, and then placed on the filter paper. Then, 2 mL of the test solution was poured into the polyethylene cup. After the test solution was air-dried, 5 fourth instar larvae of Spodoptela litura were released into the polyethylene cup and the cup was sealed with a lid. After 6 days, the number of surviving or dead Spodoptela litura was counted and a pest death rate was calculated according to the following equation. Pest death rate(%)=(Number of dead larvae/Number of tested larvae)×100

The next experiment concerns Musca domestica. As to the kind of experiment: Test Example 1: Musca domestica filter paper/sucrose bait test. The class given is in vivo. To be noted: 500 ppm test solution, 0.7 ml on filter paper with sucrose bait, 10 female imagoes, after 24 hours, read-out: pest death rate. The protocol: as §1
A filter paper having a diameter of 5.5 cm was spread on the bottom of a polyethylene cup having a diameter of 5.5 cm and 0.7 ml of the test solution was added dropwise onto the filter paper. As a bait, 30 mg of sucrose was uniformly placed on the filter paper. Into the polyethylene cup, 10 female imagoes of Musca domestica were released and the cup was sealed with a lid. After 24 hours, the number of surviving or dead Musca domestica was counted and a pest death rate was calculated according to the following equation. Pest death rate(%)=(Number of dead imagoes/Number of tested imagoes)×100

Turning to `COCC(=O)NN(C(=O)c1ccccc1)c1cc(C2=NOC(c3cc(Cl)cc(Cl)c3)(C(F)(F)F)C2)ccc1Cl` (stereo not shown) [(57)], the pest or weed control at 500 ppm with Spodoptela litura is ≥ 80%.

Turning to `CC(C)CC(=O)NNc1cc(C2=NOC(c3cc(Cl)cc(Cl)c3)(C(F)(F)F)C2)ccc1Cl` (stereo not shown) [(15)], the pest or weed control at 500 ppm with Musca domestica amounted to 100%.

`CC(C)(C)C(=O)NNc1cc(C2=NOC(c3cc(Cl)cc(Cl)c3)(C(F)(F)F)C2)ccc1Cl` (stereo not shown) [(23)]: the pest or weed control at 500 ppm in the experiment on Musca domestica turned out to be 100%.

Consider `CC(=O)NN(C(=O)OC(C)(C)C)c1cccc(C2=NOC(c3cc(Cl)cc(Cl)c3)(C(F)(F)F)C2)c1` (stereo not shown) [(1)], for which the pest or weed control at 500 ppm with Spodoptela litura is ≥ 80%; with Musca domestica, 100%.

For `O=C(CC(F)(F)F)NNc1cccc(C2=NOC(c3cc(Cl)cc(Cl)c3)(C(F)(F)F)C2)c1` (stereo not shown) [(7)], the pest or weed control at 500 ppm in the experiment on Musca domestica is 100%.

`O=C(CC(F)(F)F)NNc1cc(C2=NOC(c3cc(Cl)cc(Cl)c3)(C(F)(F)F)C2)ccc1Cl` (stereo not shown) [(11)]: the pest or weed control at 500 ppm in the experiment on Musca domestica is 100%.

`CC(C)(CCl)C(=O)NNc1cc(C2=NOC(c3cc(Cl)cc(Cl)c3)(C(F)(F)F)C2)ccc1Cl` (stereo not shown) [(40)]: the pest or weed control at 500 ppm was ≥ 80% in the experiment on Spodoptela litura and 100% in the experiment on Musca domestica.

As for `O=C(Cc1ccccc1)NNc1cc(C2=NOC(c3cc(Cl)cc(Cl)c3)(C(F)(F)F)C2)ccc1Cl` (stereo not shown) [(26)], the pest or weed control at 500 ppm in the experiment on Spodoptela litura is ≥ 80%.

As for `O=C(CCCC(F)(F)F)NNc1cc(C2=NOC(c3cc(Cl)cc(Cl)c3)(C(F)(F)F)C2)ccc1Cl` (stereo not shown) [(36)], the pest or weed control at 500 ppm in the experiment on Spodoptela litura was ≥ 80%; with Musca domestica, 100%.

In the case of `Cc1ccc(C2=NOC(c3cc(Cl)cc(Cl)c3)(C(F)(F)F)C2)cc1NNC(=O)CC(F)(F)F` (stereo not shown) [(8)], in the experiment on Musca domestica, the pest or weed control at 500 ppm was 100%.

Take `CC(=O)N(NC(=O)CCC(F)(F)F)c1cc(C2=NOC(c3cc(Cl)cc(Cl)c3)(C(F)(F)F)C2)ccc1Cl` (stereo not shown) [(53)]: in the experiment on Spodoptela litura, the pest or weed control at 500 ppm is ≥ 80%.

With `COCC(=O)NNc1cc(C2=NOC(c3cc(Cl)cc(Cl)c3)(C(F)(F)F)C2)ccc1Cl` (stereo not shown) [(38)], the pest or weed control at 500 ppm in the experiment on Spodoptela litura was ≥ 80%; in the experiment on Musca domestica it was 100%.

Turning to `CC(=O)NN(C)c1cccc(C2=NOC(c3cc(Cl)cc(Cl)c3)(C(F)(F)F)C2)c1` (stereo not shown) [(5)], the pest or weed control at 500 ppm in the experiment on Spodoptela litura was ≥ 80%.

Regarding `O=C(CCCBr)NNc1cc(C2=NOC(c3cc(Cl)cc(Cl)c3)(C(F)(F)F)C2)ccc1Cl` (stereo not shown) [(34)], in the experiment on Spodoptela litura, the pest or weed control at 500 ppm is ≥ 80%.

With `O=C(CC(F)(F)F)NNc1cc(C2=NOC(c3cc(Cl)cc(Cl)c3)(C(F)(F)F)C2)ccc1F` (stereo not shown) [(10)], the pest or weed control at 500 ppm in the experiment with Musca domestica came to 100%.
